This assay addresses Recombinant human MALT-1 (amino acids 340-824) (Homo sapiens (Human), UniProt Q9UDY8). Description: MALT-1 inhibition assay (fluorogenic substrate Ac-LRSR-Rh110-DP). Type of assay: biochemical. The note with it: recombinant human MALT-1, substrate Ac-LRSR-Rh110-DP. Here is the method:
MALT-1 paracaspase activity was measured using the fluorogenic substrate Ac-LRSR-Rh110-DP (purchased from Biosantan GmbH). […] The reaction was initiated by addition of substrate. Final concentrations of MALT-1 and substrate were 3 nM and 10 μM respectively. Reactions were incubated in the dark for 60 minutes at 25° C. […] Percent inhibition values were calculated from relative fluorescence units at different doses and fitted to a 4-parameter logistic curve to determine IC50 values (see Table 1).
Recombinant human MALT-1 (amino acids 340-824), sequence (Q9UDY8 340-824): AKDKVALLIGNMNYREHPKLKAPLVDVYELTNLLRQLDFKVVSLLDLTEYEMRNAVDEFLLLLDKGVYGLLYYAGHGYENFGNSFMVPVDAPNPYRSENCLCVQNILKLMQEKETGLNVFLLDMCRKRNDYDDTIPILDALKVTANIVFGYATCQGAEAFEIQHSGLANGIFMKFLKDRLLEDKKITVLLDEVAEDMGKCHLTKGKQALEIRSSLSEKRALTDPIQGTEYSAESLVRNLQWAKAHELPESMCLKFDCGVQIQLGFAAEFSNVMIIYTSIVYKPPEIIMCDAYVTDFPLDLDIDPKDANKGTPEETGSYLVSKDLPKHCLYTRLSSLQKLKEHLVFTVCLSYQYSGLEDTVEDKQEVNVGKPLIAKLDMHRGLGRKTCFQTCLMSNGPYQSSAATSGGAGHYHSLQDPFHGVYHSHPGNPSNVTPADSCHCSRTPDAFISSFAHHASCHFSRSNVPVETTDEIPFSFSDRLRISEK
For the molecule `CC(=O)N1CCC(C(=O)N(C)[C@@H](c2ccc(N3CCCc4c3cnc3cc(Cl)nn43)nc2)C(F)(F)F)CC1` [CPD0074051, 1-acetyl-N-[(1S)-1-[6-(4-chloro-2,3,7,10-tetrazatricyclo[7.4.0.0^2,6]trideca-1(9),3,5,7-tetraen-10-yl)-3-pyridyl]-2,2,2-trifluoro-ethyl]-N-methyl-piperidine-4-carboxamide], the IC50 was 154 nM.
With `COc1ccc2ncc(Nc3ccc([C@H](N(C)C(=O)C4CCN(C(C)=O)CC4)C(F)(F)F)cc3)c([C@@H]3CCOC3)c2n1` [CPD0082480], the IC50 stood at 77 nM.
Turning to `C[C@H]1CCc2c(cnc3cc(Cl)nn23)N1c1ccc([C@H](N(C)C(=O)[C@H]2CC[S@](=N)(=O)CC2)C(F)(F)F)cc1` (relative stereo) [CPD0074564, (1rel r 4rel r) N-[(1S)-1-[4-[(11-rel S)-4-chloro-11-methyl-2,3,7,10-tetrazatricyclo[7.4.0.0^2,6]trideca-1(9),3,5,7-tetraen-10-yl]phenyl]-2,2,2-trifluoro-ethyl]-1-imino-N-methyl-1-oxo-thiane-4-carboxamide], the IC50 turned out to be 248 nM.
Turning to `COc1ccc2ncc(Nc3ccc([C@H](N(C)C(=O)C4CCN(C(=O)CO)CC4)C(F)(F)F)cc3)c([C@@H]3CCOC3)c2n1` [CPD0082482], the IC50 was 72 nM.
As for `CN(C(=O)[C@H](O)C1CCS(=O)(=O)CC1)[C@@H](c1ccc(N2CCCc3c2cnc2cc(Cl)nn32)cc1)C(F)(F)F` (relative stereo) [CPD0073972, (2rel-R)—N-[(1S)-1-(4-{4-chloro-2,3,7,10-tetraazatricyclo[7.4.0.0^2,6]trideca-1(9),3,5,7-tetraen-10-yl}phenyl)-2,2,2-trifluoroethyl]-2-(1,1-dioxo-1λ^e-thian-4-yl)-2-hydroxy-N-methylacetamide], the IC50 was determined as 109 nM.
`CN(C(=O)[C@@H]1CNC(=O)N1)[C@@H](c1ccc(N2CCCc3c2cnc2cc(Cl)nn32)cc1)C(F)(F)F` (relative stereo) [CPD0075578, (4rel S)-N-[(1S)-1-[4-(4-chloro-2,3,7,10-tetrazatricyclo[7.4.0.0^2,6]trideca-1(9),3,5,7-tetraen-10-yl)phenyl]-2,2,2-trifluoro-ethyl]-N-methyl-2-oxo-imidazolidine-4-carboxamide]: the IC50 came to 51 nM.
Turning to `CN(C(=O)[C@H]1C[C@@H](O)C1)[C@@H](c1ccc(N2CCCc3c2cnc2cc(Cl)nn32)cc1)C(F)(F)F` [CPD0074538], the IC50 is 57 nM.
With `CN(C(=O)[C@@H]1CCN(C(=O)C2(O)CC2)C1)[C@@H](c1ccc(N2CCCc3c2cnc2cc(Cl)nn32)cc1)C(F)(F)F` [CPD0073978, (3rel-R)-N-[(1S)-1-[4-(4-chloro-2,3,7,10-tetrazatricyclo[7.4.0.0^2,6]trideca-1(9),3,5,7-tetraen-10-yl)phenyl]-2,2,2-trifluoro-ethyl]-1-(1-hydroxycyclopropanecarbonyl)-N-methyl-pyrrolidine-3-carboxamide], the 50% inhibitory concentration (IC50) was 54 nM.
In the case of `CO[C@@H](C)c1c(Nc2ccc([C@H](N(C)C(=O)[C@H]3CC[S@@](=N)(=O)CC3)C(F)(F)F)cc2)cnn2cc(Cl)nc12` (relative stereo) [CPD0082474, (1rel-s,4rel-s) N-[(1 S)-1-[4-[[2-chloro-8-[(1S)-1-methoxyethyl]imidazo[1,2-b]pyridazin-7-yl]amino]phenyl]-2,2,2-trifluoro-ethyl]-1-imino-N-methyl-1-oxo-thiane-4-carboxamide] it was 50 nM; in that of `C[C@H]1CCN(c2ccc([C@H](N(C)C(=O)[C@@H]3CNC(=O)C3)C(F)(F)F)cc2)c2cnc3cc(Cl)nn3c21` [CPD0074569], 30 nM; in that of `COc1ccc2ncc(Nc3ccc([C@@H](N(C)C(=O)[C@H]4CC[S@](=N)(=O)CC4)C(F)(F)F)cc3)c([C@@H](C)OC)c2n1` (stereo in doubt) [CPD0077189, (1 rel-s,4rel-s)-1-imino-N-methyl-1-oxo-N-[(1R)-2,2,2-trifluoro-1-[4-({6-methoxy-4-[(1 rel-R)-1-methoxyethyl]-1,5-naphthyridin-3-yl}amino)phenyl]ethyl]-1λ^6-thiane-4-carboxamide], 274 nM.
`CN(C(=O)[C@@H]1CNC(=O)O1)[C@@H](c1ccc(N2CCCc3c2cnc2cc(Cl)nn32)cc1)C(F)(F)F` (single isomer, unassigned) [CPD0075573]: the IC50 was found to be 197 nM.
For the molecule `C[C@H]1CCc2c(cnc3cc(Cl)nn23)N1c1ccc([C@H](N(C)C(=O)[C@H]2CC[S@@](=N)(=O)CC2)C(F)(F)F)cc1` (relative stereo) [CPD0074565, (1rel s 4rel s) N-[(1S)-1-[4-[(11-rel S)-4-chloro-11-methyl-2,3,7,10-tetrazatricyclo[7.4.0.0^2,6]trideca-1(9),3,5,7-tetraen-10-yl]phenyl]-2,2,2-trifluoro-ethyl]-1-imino-N-methyl-1-oxo-thiane-4-carboxamide], the IC50 turned out to be 377 nM.
In the case of `COc1ccc2ncc(Nc3ccc([C@H](N(C)C(=O)C4CCN(C(C)=O)CC4)C(F)(F)F)cc3)c([C@H]3CCOC3)c2n1` [CPD0082479], the IC50 came out at 111 nM.
On to `COc1ccc2ncc(Nc3ccc([C@H](N(C)C(=O)C4CCS(=O)(=O)CC4)C(F)(F)F)cc3)c(C(=O)N3CCC3)c2n1` [CPD0074046, N-[(1S)-1-[4-[[4-(azetidine-1-carbonyl)-6-methoxy-1,5-naphthyridin-3-yl]amino]phenyl]-2,2,2-trifluoro-ethyl]-N-methyl-1,1-dioxo-thiane-4-carboxamide], for which the IC50 turned out to be 494 nM.
As for `CO[C@@H](C)c1c(Nc2ccc([C@H](N(C)C(=O)C3CCN(C(=O)CO)CC3)C(F)(F)F)cc2)cnn2cc(Cl)nc12` [CPD0084141, N-[(1S)-1-[4-[[2-chloro-8-[(1S)-1-methoxyethyl]imidazo[1,2-b]pyridazin-7-yl]amino]phenyl]-2,2,2-trifluoro-ethyl]-1-(2-hydroxyacetyl)-N-methyl-piperidine-4-carboxamide], the figure is 43 nM; as for `COc1ccc2ncc(Nc3ccc([C@H](N(C)C(=O)C4CCN(C(=O)CO)CC4)C(F)(F)F)cc3)c([C@H]3CCOC3)c2n1` [CPD0082481], 73 nM.
On to `C[C@@H]1CCN(c2ccc([C@H](N(C)C(=O)[C@H]3CNC(=O)C3)C(F)(F)F)cc2)c2cnc3cc(Cl)nn3c21` [CPD0074560], for which the IC50 came out at 43 nM.
With `CN(C(=O)[C@H]1CCN(C(=O)C2(O)CC2)C1)[C@@H](c1ccc(N2CCCc3c2cnc2cc(Cl)nn32)cc1)C(F)(F)F` (relative stereo) [CPD0073979, (3rel-S)-N-[(1S)-1-[4-(4-chloro-2,3,7,10-tetrazatricyclo[7.4.0.0^2,6]trideca-1(9),3,5,7-tetraen-10-yl)phenyl]-2,2,2-trifluoro-ethyl]-1-(1-hydroxycyclopropanecarbonyl)-N-methyl-pyrrolidine-3-carboxamide], the IC50 worked out at 75 nM.
As for `C[C@@H]1CCc2c(cnc3cc(Cl)nn23)N1c1ccc([C@H](N(C)C(=O)[C@H]2CC[S@@](=N)(=O)CC2)C(F)(F)F)cc1` (relative stereo) [CPD0074552, (1rel s 4rel s) N-[(1S)-1-[4-[(11-rel R)-4-chloro-11-methyl-2,3,7,10-tetrazatricyclo[7.4.0.0^2,6]trideca-1(9),3,5,7-tetraen-10-yl]phenyl]-2,2,2-trifluoro-ethyl]-1-imino-N-methyl-1-oxo-thiane-4-carboxamide], the IC50 is 78 nM.
`CN1C[C@H](C(=O)N(C)[C@@H](c2ccc(N3CCCc4c3cnc3cc(Cl)nn43)cc2)C(F)(F)F)NC1=O` (relative stereo) [CPD0075577]: the IC50 turned out to be 42 nM.
For the molecule `COc1ccc2ncc(Nc3ccc([C@H](N(C)C(=O)C4CCS(=O)(=O)CC4)C(F)(F)F)cc3)c([C@H](C)N)c2n1` (relative stereo) [CPD0084307, N-[(1 S)-1-[4-[[4-[(1rel S)-1-aminoethyl]-6-methoxy-1,5-naphthyridin-3-yl]amino]phenyl]-2,2,2-trifluoroo-ethyl]-N-methyl-1,1-dioxo-thiane-4-carboxamide], the IC50 came to 124 nM.
As for `CN(C(=O)[C@H]1CCN(C(=O)CO)C1)[C@@H](c1ccc(N2CCCc3c2cnc2cc(F)nn32)cc1)C(F)(F)F` [CPD0075878], the figure is 111 nM; as for `COc1ccc2ncc(Nc3ccc([C@H](N(C)C(=O)C4CCS(=O)(=O)CC4)C(F)(F)F)cc3)c([C@@H](C)O)c2n1` (relative stereo) [CPD0084256, N-methyl-1,1-dioxo-N-[(1S)-2,2,2-trifluoro-1-[4-[[4-[(1rel R)-1-hydroxyethyl]-6-methoxy-1,5-naphthyridin-3-yl]amino]phenyl]ethyl]thiane-4-carboxamide], 38 nM; as for `CN(C(=O)C1CNC(=O)N1)[C@@H](c1ccc(N2CCCc3c2cnc2cc(Cl)nn32)cc1)C(F)(F)F` (stereo in doubt) [CPD0075579, (4rel R)-N-[(1S)-1-[4-(4-chloro-2,3,7,10-tetrazatricyclo[7.4.0.0^2,6]trideca-1(9),3,5,7-tetraen-10-yl)phenyl]-2,2,2-trifluoro-ethyl]-N-methyl-2-oxo-imidazolidine-4-carboxamide], 44 nM.
As for `CN(C(=O)[C@@H]1CCN(C(=O)CO)C1)[C@@H](c1ccc(N2CCCc3c2cnc2cc(F)nn32)cc1)C(F)(F)F` [CPD0075879], the figure is 154 nM; as for `CN(C(=O)[C@H]1CC(=O)N1)[C@@H](c1ccc(N2CCCc3c2cnc2cc(Cl)nn32)cc1)C(F)(F)F` [CPD0075869, (2R)-N-[(1S)-1-[4-(4-chloro-2,3,7,10-tetrazatricyclo[7.4.0.0^2,6]trideca-1(9),3,5,7-tetraen-10-yl)phenyl]-2,2,2-trifluoro-ethyl]-N-methyl-4-oxo-azetidine-2-carboxamide], 75 nM.
On to `CO[C@@H](C)c1c(Nc2ccc([C@H](N(C)C(=O)C3CC4(C3)CS(=O)(=O)C4)C(F)(F)F)cc2)cnn2cc(Cl)nc12` [CPD0084934], for which the IC50 is 54 nM.

The values above are taken from patent US20250051327A1, “MALT-1 MODULATORS” (EXSCIENTIA AI LIMITED, priority 2020, published 2025).
